One test concerns the target T1, LRRK2(G2019S) (Homo sapiens, UniProt Q5S007, G2019S).
T1 construct: purchased Eurofins DiscoverX KINOMEscan
The test can be described thus: KINOMEscan 1 μM, LRRK2(G2019S). Particulars: 1000 nM; Entrez LRRK2; read-out: Percent Control. The class given is binding. An excerpt:
(§1) Supplement cells-12-00287-s001.zip/File S2. KinomeScan data for the CAMKK2 probe and negative control.xlsx, sheet "SGC-CAMKK2-1" | column: Percent Control

The next test deals with T2, CAMK1 (Homo sapiens, UniProt Q14012).
T2 construct: purchased Eurofins DiscoverX KINOMEscan
Put plainly: KINOMEscan 1 μM, CAMK1. The class given is binding. The note with it: 1000 nM; Entrez CAMK1; read-out: Percent Control.
Source text: as §1

The next test has as its target T3, CSK (Homo sapiens, UniProt P41240).
T3 construct: purchased Eurofins DiscoverX KINOMEscan
Put plainly: KINOMEscan 1 μM, CSK. It counts as binding. The note with it: 1000 nM; Entrez CSK; read-out: Percent Control.
Source text: as §1

The next test has as its target T4, PRKD3 (Homo sapiens, UniProt O94806).
T4 construct: purchased Eurofins DiscoverX KINOMEscan
The test can be described thus: KINOMEscan 1 μM, PRKD3. It counts as binding. Particulars: 1000 nM; Entrez PRKD3; read-out: Percent Control.
Source text: as §1

In another test the target is T5, RIOK1 (Homo sapiens, UniProt Q9BRS2).
T5 construct: purchased Eurofins DiscoverX KINOMEscan
The test can be described thus: KINOMEscan 1 μM, RIOK1. It counts as binding. The note with it: 1000 nM; Entrez RIOK1; read-out: Percent Control.
Source text: as §1

For the next test, the target named is T6, NEK3 (Homo sapiens, UniProt P51956).
T6 construct: purchased Eurofins DiscoverX KINOMEscan
Put plainly: KINOMEscan 1 μM, NEK3. The class given is binding. The note with it: 1000 nM; Entrez NEK3; read-out: Percent Control.
Source text: as §1

The target in the next test is T7, NDR2 (Homo sapiens, UniProt Q9Y2H1).
T7 construct: purchased Eurofins DiscoverX KINOMEscan
The test can be described thus: KINOMEscan 1 μM, NDR2. The class given is binding. Particulars: 1000 nM; Entrez STK38L; read-out: Percent Control.
Source text: as §1

For a further test, the target named is T8, KIT(V559D) (Homo sapiens, UniProt P10721, V559D).
T8 construct: purchased Eurofins DiscoverX KINOMEscan
The test can be described thus: KINOMEscan 1 μM, KIT(V559D). The class given is binding. Particulars: 1000 nM; Entrez KIT; read-out: Percent Control.
Source text: as §1

The next test addresses T9, WNK1 (Homo sapiens, UniProt Q9H4A3).
T9 construct: purchased Eurofins DiscoverX KINOMEscan
The test can be described thus: DiscoverX KINOMEscan binding assay at 1 μM, WNK1. Particulars: Compound Concentration 1000 nM, read-out: Percent Control.
Source text: as §1

The target in a further test is T10, TLK2 (Homo sapiens, UniProt Q86UE8).
T10 construct: purchased Eurofins DiscoverX KINOMEscan
Put plainly: DiscoverX KINOMEscan binding assay at 1 μM, TLK2. The note with it: Compound Concentration 1000 nM, read-out: Percent Control.
Source text: as §1

For the next test, the target named is T11, KIT(D816H) (Homo sapiens, UniProt P10721, D816H).
T11 construct: purchased Eurofins DiscoverX KINOMEscan
The test can be described thus: KINOMEscan 1 μM, KIT(D816H). The note with it: 1000 nM; Entrez KIT; read-out: Percent Control. It counts as binding.
Source text: as §1

In another test the target is T12, NEK5 (Homo sapiens, UniProt Q6P3R8).
T12 construct: purchased Eurofins DiscoverX KINOMEscan
The test can be described thus: KINOMEscan 1 μM, NEK5. It counts as binding. Particulars: 1000 nM; Entrez NEK5; read-out: Percent Control.
Source text: as §1

The target of a further test is T13, MAP4K3 (Homo sapiens, UniProt Q8IVH8).
T13 construct: purchased Eurofins DiscoverX KINOMEscan
T13 sequence (Q8IVH8 whole entry): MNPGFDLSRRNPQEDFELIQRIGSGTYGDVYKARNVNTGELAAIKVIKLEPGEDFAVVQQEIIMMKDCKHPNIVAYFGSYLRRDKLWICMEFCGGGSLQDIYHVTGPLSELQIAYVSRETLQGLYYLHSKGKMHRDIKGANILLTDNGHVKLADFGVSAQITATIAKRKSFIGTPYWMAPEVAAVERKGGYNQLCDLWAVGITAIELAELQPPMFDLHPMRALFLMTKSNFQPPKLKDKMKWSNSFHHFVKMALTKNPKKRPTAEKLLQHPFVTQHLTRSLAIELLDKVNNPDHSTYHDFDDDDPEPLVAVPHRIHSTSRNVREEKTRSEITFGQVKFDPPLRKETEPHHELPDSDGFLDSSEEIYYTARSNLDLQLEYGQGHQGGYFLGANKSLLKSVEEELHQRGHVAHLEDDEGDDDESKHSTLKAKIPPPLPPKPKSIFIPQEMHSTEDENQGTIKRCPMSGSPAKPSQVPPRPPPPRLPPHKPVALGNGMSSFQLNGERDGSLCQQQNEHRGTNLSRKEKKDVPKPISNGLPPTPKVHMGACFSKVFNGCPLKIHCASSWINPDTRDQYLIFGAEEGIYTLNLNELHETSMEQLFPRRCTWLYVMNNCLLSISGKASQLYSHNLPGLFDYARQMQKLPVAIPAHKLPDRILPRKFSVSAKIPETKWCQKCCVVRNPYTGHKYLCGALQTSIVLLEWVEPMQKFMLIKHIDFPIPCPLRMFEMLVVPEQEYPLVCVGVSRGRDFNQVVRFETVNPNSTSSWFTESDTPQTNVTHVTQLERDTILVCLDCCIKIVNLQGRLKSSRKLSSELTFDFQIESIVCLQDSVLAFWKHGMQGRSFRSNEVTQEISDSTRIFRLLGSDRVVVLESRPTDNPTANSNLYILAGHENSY
The test can be described thus: KINOMEscan 1 μM, MAP4K3. The class given is binding. The note with it: 1000 nM; Entrez MAP4K3; read-out: Percent Control.
Source text: as §1

For another test, the target named is T14, CDKL5 (Homo sapiens, UniProt O76039).
T14 construct: purchased Eurofins DiscoverX KINOMEscan
The test can be described thus: KINOMEscan 1 μM, CDKL5. Particulars: 1000 nM; Entrez CDKL5; read-out: Percent Control. The class given is binding.
Source text: as §1

A further test deals with T15, PRP4 (Homo sapiens, UniProt Q13523).
T15 construct: purchased Eurofins DiscoverX KINOMEscan
The test can be described thus: DiscoverX KINOMEscan binding assay at 1 μM, PRP4. The note with it: PRP4 (PRPF4B); Compound Concentration 1000 nM; read-out: Percent Control.
Source text: as §1

In the next test the target is T16, LZK (Homo sapiens, UniProt O43283).
T16 construct: purchased Eurofins DiscoverX KINOMEscan
T16 sequence (O43283 whole entry): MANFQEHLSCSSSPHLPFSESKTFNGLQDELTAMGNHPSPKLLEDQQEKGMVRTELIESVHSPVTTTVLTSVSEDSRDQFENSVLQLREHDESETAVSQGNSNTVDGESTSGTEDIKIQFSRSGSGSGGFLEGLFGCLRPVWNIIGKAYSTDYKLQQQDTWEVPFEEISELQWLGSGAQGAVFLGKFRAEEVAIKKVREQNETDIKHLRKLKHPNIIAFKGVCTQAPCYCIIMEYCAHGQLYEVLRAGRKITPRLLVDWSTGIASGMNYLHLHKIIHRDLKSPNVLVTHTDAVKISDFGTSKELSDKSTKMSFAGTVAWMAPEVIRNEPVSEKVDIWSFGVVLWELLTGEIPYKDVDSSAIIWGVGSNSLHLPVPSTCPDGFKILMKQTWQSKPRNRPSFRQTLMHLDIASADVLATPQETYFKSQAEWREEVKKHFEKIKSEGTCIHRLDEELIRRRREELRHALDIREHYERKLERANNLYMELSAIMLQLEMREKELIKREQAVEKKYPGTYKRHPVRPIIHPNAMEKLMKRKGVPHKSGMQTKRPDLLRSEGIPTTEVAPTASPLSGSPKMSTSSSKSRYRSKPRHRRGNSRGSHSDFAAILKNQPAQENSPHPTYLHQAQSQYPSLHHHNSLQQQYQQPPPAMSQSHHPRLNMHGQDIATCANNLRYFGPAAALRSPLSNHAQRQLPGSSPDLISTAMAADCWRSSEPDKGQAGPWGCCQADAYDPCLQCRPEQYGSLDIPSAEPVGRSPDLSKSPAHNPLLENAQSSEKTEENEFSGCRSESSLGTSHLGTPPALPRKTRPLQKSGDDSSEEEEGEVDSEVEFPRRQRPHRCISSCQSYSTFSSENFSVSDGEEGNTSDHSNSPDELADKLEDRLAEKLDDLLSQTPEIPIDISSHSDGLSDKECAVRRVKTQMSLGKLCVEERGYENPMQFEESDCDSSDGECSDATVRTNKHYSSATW
The test can be described thus: KINOMEscan 1 μM, LZK. The class given is binding. The note with it: 1000 nM; Entrez MAP3K13; read-out: Percent Control.
Source text: as §1

Another test deals with T17, RIOK3 (Homo sapiens, UniProt O14730).
T17 construct: purchased Eurofins DiscoverX KINOMEscan
T17 sequence (O14730 whole entry): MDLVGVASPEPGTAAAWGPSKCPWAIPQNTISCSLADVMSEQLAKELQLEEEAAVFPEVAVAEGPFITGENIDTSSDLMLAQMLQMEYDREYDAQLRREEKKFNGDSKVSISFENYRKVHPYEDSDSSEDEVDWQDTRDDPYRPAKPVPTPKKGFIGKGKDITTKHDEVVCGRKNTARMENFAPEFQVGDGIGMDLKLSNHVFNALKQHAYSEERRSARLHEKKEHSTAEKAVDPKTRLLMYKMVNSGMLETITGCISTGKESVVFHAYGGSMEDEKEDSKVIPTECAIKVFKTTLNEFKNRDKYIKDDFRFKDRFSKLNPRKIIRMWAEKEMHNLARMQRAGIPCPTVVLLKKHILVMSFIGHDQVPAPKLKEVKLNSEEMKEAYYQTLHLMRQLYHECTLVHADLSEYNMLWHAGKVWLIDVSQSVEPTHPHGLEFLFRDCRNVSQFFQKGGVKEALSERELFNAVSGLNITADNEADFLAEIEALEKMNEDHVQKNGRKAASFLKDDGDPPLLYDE
The test can be described thus: KINOMEscan 1 μM, RIOK3. Particulars: 1000 nM; Entrez RIOK3; read-out: Percent Control. The class given is binding.
Source text: as §1

The next test has as its target T18, SNARK (Homo sapiens, UniProt Q9H093).
T18 construct: purchased Eurofins DiscoverX KINOMEscan
Put plainly: DiscoverX KINOMEscan binding assay at 1 μM, SNARK. Particulars: SNARK (NUAK2); Compound Concentration 1000 nM; read-out: Percent Control.
Source text: as §1

For a further test, the target named is T19, TNK2 (Homo sapiens, UniProt Q07912).
T19 construct: purchased Eurofins DiscoverX KINOMEscan
Put plainly: KINOMEscan 1 μM, TNK2. The class given is binding. Particulars: 1000 nM; Entrez TNK2; read-out: Percent Control.
Source text: as §1

In the next test the target is T20, LIMK1 (Homo sapiens, UniProt P53667).
T20 construct: purchased Eurofins DiscoverX KINOMEscan
The test can be described thus: KINOMEscan 1 μM, LIMK1. It counts as binding. The note with it: 1000 nM; Entrez LIMK1; read-out: Percent Control.
Source text: as §1

The target in a further test is T21, PAK3 (Homo sapiens, UniProt O75914).
T21 construct: purchased Eurofins DiscoverX KINOMEscan
T21 sequence (O75914 whole entry): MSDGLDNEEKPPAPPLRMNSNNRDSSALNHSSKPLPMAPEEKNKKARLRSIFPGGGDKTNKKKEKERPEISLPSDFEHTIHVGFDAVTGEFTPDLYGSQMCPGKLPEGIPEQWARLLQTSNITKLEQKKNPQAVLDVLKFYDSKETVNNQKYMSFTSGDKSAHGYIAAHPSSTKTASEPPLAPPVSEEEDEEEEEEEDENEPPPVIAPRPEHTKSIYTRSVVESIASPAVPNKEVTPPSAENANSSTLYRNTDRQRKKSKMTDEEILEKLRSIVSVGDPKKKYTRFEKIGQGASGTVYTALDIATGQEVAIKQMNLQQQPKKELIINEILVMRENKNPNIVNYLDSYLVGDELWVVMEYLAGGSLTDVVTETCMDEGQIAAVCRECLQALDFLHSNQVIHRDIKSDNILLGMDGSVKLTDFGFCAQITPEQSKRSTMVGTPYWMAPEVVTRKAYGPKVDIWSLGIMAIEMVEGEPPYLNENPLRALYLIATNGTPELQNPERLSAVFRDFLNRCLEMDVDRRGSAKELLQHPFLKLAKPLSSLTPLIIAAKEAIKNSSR
The test can be described thus: DiscoverX KINOMEscan binding assay at 1 μM, PAK3. Particulars: Compound Concentration 1000 nM, read-out: Percent Control.
Source text: as §1

The next test deals with T22, WNK2 (Homo sapiens, UniProt Q9Y3S1).
T22 construct: purchased Eurofins DiscoverX KINOMEscan
Put plainly: KINOMEscan at 1 μM, WNK2. It counts as binding. The note with it: 1000 nM, read-out: Percent Control. The text has this:
(§2) Supplement cells-12-00287-s001.zip/File S2. KinomeScan data for the CAMKK2 probe and negative control.xlsx, sheet "SGC-CAMKK2-1N" | column: Percent Control

The next test has as its target T23, PRKCD (Homo sapiens, UniProt Q05655).
T23 construct: purchased Eurofins DiscoverX KINOMEscan
The test can be described thus: KINOMEscan binding assay at 1 μM, PRKCD. The note with it: Compound Concentration 1000 nM; read-out: Percent Control.
Source text: as §2

For another test, the target named is T24, CDK7 (Homo sapiens, UniProt P50613).
T24 construct: purchased Eurofins DiscoverX KINOMEscan
The test can be described thus: KINOMEscan at 1 μM, CDK7. The note with it: 1000 nM, read-out: Percent Control. The class given is binding.
Source text: as §2

A further test has as its target T25, LRRK2 (Homo sapiens, UniProt Q5S007).
T25 construct: purchased Eurofins DiscoverX KINOMEscan
The test can be described thus: KINOMEscan at 1 μM, LRRK2. The class given is binding. Particulars: 1000 nM, read-out: Percent Control.
Source text: as §2

In another test the target is T26, IGF1R (Homo sapiens, UniProt P08069).
T26 construct: purchased Eurofins DiscoverX KINOMEscan
The test can be described thus: KINOMEscan binding assay at 1 μM, IGF1R. Particulars: Compound Concentration 1000 nM; read-out: Percent Control.
Source text: as §2

Test [1] deals with T27, JAK3(JH1domain-catalytic) (Homo sapiens, UniProt P52333).
T27 construct: JAK3(JH1domain-catalytic); purchased Eurofins DiscoverX KINOMEscan
T27 sequence (P52333 813-1124 limits assumed): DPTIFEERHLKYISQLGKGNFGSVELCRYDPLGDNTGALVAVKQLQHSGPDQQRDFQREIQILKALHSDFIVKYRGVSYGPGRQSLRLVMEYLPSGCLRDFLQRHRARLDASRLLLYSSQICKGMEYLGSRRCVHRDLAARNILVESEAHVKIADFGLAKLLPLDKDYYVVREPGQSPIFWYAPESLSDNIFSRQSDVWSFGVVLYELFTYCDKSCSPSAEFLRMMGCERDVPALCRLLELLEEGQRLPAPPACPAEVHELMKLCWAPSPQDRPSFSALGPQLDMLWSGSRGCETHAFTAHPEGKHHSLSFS
The test can be described thus: KINOMEscan at 1 μM, JAK3(JH1domain-catalytic). The class given is binding. Particulars: 1000 nM, read-out: Percent Control.
Source text: as §2

The target of the next test is T28, GRK4 (Homo sapiens, UniProt P32298).
T28 construct: purchased Eurofins DiscoverX KINOMEscan
The test can be described thus: KINOMEscan binding assay at 1 μM, GRK4. The note with it: Compound Concentration 1000 nM; read-out: Percent Control.
Source text: as §2

The next test addresses T29, DLK (Homo sapiens, UniProt Q12852).
T29 construct: purchased Eurofins DiscoverX KINOMEscan
Put plainly: KINOMEscan at 1 μM, DLK. It counts as binding. Particulars: 1000 nM, read-out: Percent Control.
Source text: as §2

Another test addresses T30, CSNK1G3 (Homo sapiens, UniProt Q9Y6M4).
T30 construct: purchased Eurofins DiscoverX KINOMEscan
The test can be described thus: KINOMEscan at 1 μM, CSNK1G3. It counts as binding. The note with it: 1000 nM, read-out: Percent Control.
Source text: as §2

The next test has as its target T31, p38-gamma (Homo sapiens, UniProt P53778).
T31 construct: purchased Eurofins DiscoverX KINOMEscan
The test can be described thus: KINOMEscan binding assay at 1 μM, p38-gamma. The note with it: Compound Concentration 1000 nM; read-out: Percent Control.
Source text: as §2

The next test has as its target T32, PCTK2 (Homo sapiens, UniProt Q00537).
T32 construct: purchased Eurofins DiscoverX KINOMEscan
The test can be described thus: KINOMEscan at 1 μM, PCTK2. It counts as binding. Particulars: 1000 nM, read-out: Percent Control.
Source text: as §2

For the next test, the target named is T33, HASPIN (Homo sapiens, UniProt Q8TF76).
T33 construct: purchased Eurofins DiscoverX KINOMEscan
Put plainly: KINOMEscan binding assay at 1 μM, HASPIN. Particulars: Compound Concentration 1000 nM; read-out: Percent Control.
Source text: as §2

Each structure is given as a SMILES string.

T18 sequence (Q9H093 whole entry): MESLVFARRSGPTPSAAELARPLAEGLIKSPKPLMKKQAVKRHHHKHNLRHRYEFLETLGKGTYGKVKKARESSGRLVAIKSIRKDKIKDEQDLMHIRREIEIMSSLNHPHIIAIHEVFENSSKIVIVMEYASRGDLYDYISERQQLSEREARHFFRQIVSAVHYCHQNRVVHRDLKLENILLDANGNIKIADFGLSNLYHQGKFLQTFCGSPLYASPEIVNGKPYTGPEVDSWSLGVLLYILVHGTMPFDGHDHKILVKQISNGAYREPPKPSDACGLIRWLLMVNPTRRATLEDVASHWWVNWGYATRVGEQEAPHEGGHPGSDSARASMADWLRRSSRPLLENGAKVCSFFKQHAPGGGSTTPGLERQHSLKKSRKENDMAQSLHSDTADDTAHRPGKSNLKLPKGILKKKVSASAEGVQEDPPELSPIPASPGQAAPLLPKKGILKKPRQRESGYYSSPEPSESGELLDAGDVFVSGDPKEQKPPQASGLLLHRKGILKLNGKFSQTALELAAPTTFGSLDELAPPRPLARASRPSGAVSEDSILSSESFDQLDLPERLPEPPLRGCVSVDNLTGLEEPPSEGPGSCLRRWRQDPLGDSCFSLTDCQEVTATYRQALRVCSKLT
T30 sequence (Q9Y6M4 whole entry): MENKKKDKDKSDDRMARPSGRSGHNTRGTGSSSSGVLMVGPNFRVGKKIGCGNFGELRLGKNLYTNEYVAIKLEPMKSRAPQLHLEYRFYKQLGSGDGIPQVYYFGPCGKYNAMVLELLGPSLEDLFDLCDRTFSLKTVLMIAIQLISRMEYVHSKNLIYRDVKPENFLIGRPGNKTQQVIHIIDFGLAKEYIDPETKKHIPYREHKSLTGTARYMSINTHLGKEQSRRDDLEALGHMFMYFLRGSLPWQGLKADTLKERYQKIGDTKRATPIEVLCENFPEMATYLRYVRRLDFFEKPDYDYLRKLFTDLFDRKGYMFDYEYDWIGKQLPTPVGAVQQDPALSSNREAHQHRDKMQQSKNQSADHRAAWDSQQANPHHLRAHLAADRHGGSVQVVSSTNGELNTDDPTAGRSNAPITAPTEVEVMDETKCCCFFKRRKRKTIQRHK
T31 sequence (P53778 whole entry): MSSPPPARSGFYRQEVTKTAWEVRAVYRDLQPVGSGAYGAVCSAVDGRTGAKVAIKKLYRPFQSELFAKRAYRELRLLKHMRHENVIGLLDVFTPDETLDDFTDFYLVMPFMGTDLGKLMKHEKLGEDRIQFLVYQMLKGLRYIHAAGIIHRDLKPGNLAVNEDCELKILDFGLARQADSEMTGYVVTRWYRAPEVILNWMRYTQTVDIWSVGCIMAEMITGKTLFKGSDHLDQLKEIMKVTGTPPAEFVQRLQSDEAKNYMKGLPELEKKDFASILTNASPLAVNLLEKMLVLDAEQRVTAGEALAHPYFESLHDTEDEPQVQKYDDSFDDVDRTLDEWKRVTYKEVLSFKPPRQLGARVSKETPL

Consider `Cc1cccc(-c2cnc3occ(-c4ccc(C(=O)O)c(C5CCCC5)c4)c3c2)c1` [SGC-CAMKK2-1 (YL-36)], for which the remaining binding at 1 µM stood at 100% on LRRK2(G2019S); 89% on CAMK1; 99% on CSK; 77% on PRKD3; 92% on RIOK1; 100% at NEK3. Further, the remaining binding at 1 µM at NDR2 was 100%; at KIT(V559D), 100%; at WNK1, 100%; on TLK2, 100%; on KIT(D816H) it was 87%; at NEK5, 100%. The remaining binding at 1 µM was determined as 78% at MAP4K3; 100% at CDKL5; 100% at PRP4; 100% on LZK; 75% at RIOK3; 100% at SNARK. For the same compound, the values for the remaining binding at 1 µM at TNK2, on LIMK1 and at PAK3 were 99%, 99% and 100%, respectively.
With `O=C(O)c1ccc(-c2coc3ncc(-c4ccccc4)cc23)cc1Cl` [SGC-CAMKK2-1N (UNC-YL-83)], the remaining binding at 1 µM on WNK2 was 58%; at PRKCD, 100%; at CDK7, 66%; at LRRK2, 47%; on IGF1R it was 100%; in [1], 87%. Besides, the remaining binding at 1 µM at GRK4 came to 100%; at DLK, 77%; on CSNK1G3 it was 76%; at p38-gamma, 100%; at PCTK2 it was 81%; at HASPIN it was 100%.
